Earlier results in US6410601B1, “Histochrome and its therapeutic use in acute myocardial infarction and ischemic heart disease” (priority 1998, dated 2002).

Tested on: patients with acute myocardial infarction
Conditions: 10 mg/kg intravenously before thrombolytic reperfusion

SMILES: CCc1nc(C)ccc1O [Emoxipin]
- reduction of the size of the asynergic zone in the myocardium (26 patients, control group 39.2%): 59.5%
- frequency of myocardial arrhythmias (control 28.1%): 13.9%
- lipid peroxidation in terms of malonic dialdehyde concentration (monotherapy 309%): 60%
